From patent US20170157010A1, “METHODS AND COMPOSITIONS FOR TREATMENT OF DISORDERS ASSOCIATED WITH DAMAGE INDUCED BY FREE RADICALS” (Glycadia, Inc., priority 2015, published 2017)
Several values for one entry are separate records, joined by “and”; a condition that tells them apart may be missing. Equal values may be shown once.

How the values were obtained:
[1] = Brain penetration following oral administration in rats (HPLC/MS/MS); assay type: in vivo; conditions: rat; sodium salt by gavage 15 and 60 mg/kg
Method: Rat hemi brains were obtained 1,4 and 6 hours after administration by gavage of the sodium salt of 23CPPA at doses of 15 and 60 mg/kg and were mixed with two equivalents of water and homogenized. The resulting homogenate was extracted with acetonitrile containing internal standard and concentrations of the compound were analyzed by high pressure liquid chromatography/two stage mass spectrometry (HPLC/MS/MS). Plasma samples also were collected from the same rats at these time points for measurement of plasma concentrations of the compound.

[2] = ABTS radical cation free radical scavenging (bleaching of absorbance at 734 nm); assay type: biochemical; conditions: ABTSY+ 450 micromolar, pH 7.4
Text: A radical cation of 2,2′-azino-bis(3-ethylbenzthiazoline-6-sulfonic acid) diammonium salt (ABTS) was generated by oxidation with manganese dioxide, forming the blue-green radical cation ABTSY+ with spectrophotometric absorbance at 734 nanommeters (nm). The reaction was initiated by the addition of 23CPPA (5-40 micromolar) to ABTSY+ (450 micromolar) in phosphate buffer (75 millimolar, pH 7.4) and decay of the blue-green radical cation absorbance was monitored over time. Absorbance profiles were obtained with incubation in phosphate buffer (75 millimolar, pH 7.4) as control. The reaction of anti-oxidants with stable free radicals such as ABTSY+ that is generated from ABTS measures their free radical scavenging capacities.

[3] = Ultraviolet absorption spectrum; assay type: physicochemical
Text: Ultraviolet (UV) absorption peaks of 2-(3-chlorophenylamino)phenylacetic acid at 211 and 283 nm, encompassing wavelength range of medium wave UVB (315-280 nm) and short wave UVC (280-190 nm).

O=C(O)Cc1ccccc1Nc1cccc(Cl)c1 [23CPPA, 2-[(3-chlorophenyl)amino] phenylacetic acid]
Dose dependence of brain concentrations [1]: dose proportional | Decay (% of starting absorbance) ([2]; 23CPPA 5 micromolar, 1 minute): 74 % of starting absorbance | Decay (% of starting absorbance) ([2]; 23CPPA 5 micromolar, 2 minutes): 72 % of starting absorbance | Decay (% of starting absorbance) ([2]; 23CPPA 5 micromolar, 3 minutes): 69 % of starting absorbance | Decay (% of starting absorbance) ([2]; 23CPPA 5 micromolar, 4 minutes): 67 % of starting absorbance | Decay (% of starting absorbance) ([2]; 23CPPA 5 micromolar, 5 minutes): 65 % of starting absorbance | Decay (% of starting absorbance) ([2]; 23CPPA 5 micromolar, 6 minutes): 63 % of starting absorbance | Decay (% of starting absorbance) ([2]; 23CPPA 5 micromolar, 7 minutes): 61 % of starting absorbance | Decay (% of starting absorbance) ([2]; 23CPPA 5 micromolar, 8 minutes): 60 % of starting absorbance | Decay (% of starting absorbance) ([2]; 23CPPA 5 micromolar, 9 minutes): 58 % of starting absorbance | Decay (% of starting absorbance) ([2]; 23CPPA 5 micromolar, 10 minutes): 56 % of starting absorbance | Decay (% of starting absorbance) ([2]; 23CPPA 5 micromolar, 11 minutes): 55 % of starting absorbance | Decay (% of starting absorbance) ([2]; 23CPPA 5 micromolar, 12 minutes): 53 % of starting absorbance | Decay (% of starting absorbance) ([2]; 23CPPA 5 micromolar, 13 minutes): 52 % of starting absorbance | Decay (% of starting absorbance) ([2]; 23CPPA 5 micromolar, 14 minutes): 51 % of starting absorbance | Decay (% of starting absorbance) ([2]; 23CPPA 5 micromolar, 15 minutes): 49 % of starting absorbance | Decay (% of starting absorbance) ([2]; 23CPPA 10 micromolar, 1 minute): 57 % of starting absorbance | Decay (% of starting absorbance) ([2]; 23CPPA 10 micromolar, 2 minutes): 56 % of starting absorbance | Decay (% of starting absorbance) ([2]; 23CPPA 10 micromolar, 3 minutes): 53 % of starting absorbance | Decay (% of starting absorbance) ([2]; 23CPPA 10 micromolar, 4 minutes): 52 % of starting absorbance | Decay (% of starting absorbance) ([2]; 23CPPA 10 micromolar, 5 minutes): 51 % of starting absorbance | Decay (% of starting absorbance) ([2]; 23CPPA 10 micromolar, 6 minutes): 50 % of starting absorbance | Decay (% of starting absorbance) ([2]; 23CPPA 10 micromolar, 7 minutes): 48 % of starting absorbance | Decay (% of starting absorbance) ([2]; 23CPPA 10 micromolar, 8 minutes): 47 % of starting absorbance | Decay (% of starting absorbance) ([2]; 23CPPA 10 micromolar, 9 minutes): 46 % of starting absorbance | Decay (% of starting absorbance) ([2]; 23CPPA 10 micromolar, 10 minutes): 44 % of starting absorbance | Decay (% of starting absorbance) ([2]; 23CPPA 10 micromolar, 11 minutes): 44 % of starting absorbance | Decay (% of starting absorbance) ([2]; 23CPPA 10 micromolar, 12 minutes): 43 % of starting absorbance | Decay (% of starting absorbance) ([2]; 23CPPA 10 micromolar, 13 minutes): 43 % of starting absorbance | Decay (% of starting absorbance) ([2]; 23CPPA 10 micromolar, 14 minutes): 42 % of starting absorbance | Decay (% of starting absorbance) ([2]; 23CPPA 10 micromolar, 15 minutes): 42 % of starting absorbance | Decay (% of starting absorbance) ([2]; 23CPPA 20 micromolar, 1 minute): 37 % of starting absorbance | Decay (% of starting absorbance) ([2]; 23CPPA 20 micromolar, 2 minutes): 27 % of starting absorbance | Decay (% of starting absorbance) ([2]; 23CPPA 20 micromolar, 3 minutes): 23 % of starting absorbance | Decay (% of starting absorbance) ([2]; 23CPPA 20 micromolar, 4 minutes): 20 % of starting absorbance | Decay (% of starting absorbance) ([2]; 23CPPA 20 micromolar, 5 minutes): 17 % of starting absorbance | Decay (% of starting absorbance) ([2]; 23CPPA 20 micromolar, 6 minutes): 14 % of starting absorbance | Decay (% of starting absorbance) ([2]; 23CPPA 20 micromolar, 7 minutes): 13 % of starting absorbance | Decay (% of starting absorbance) ([2]; 23CPPA 20 micromolar, 8 minutes): 12 % of starting absorbance | Decay (% of starting absorbance) ([2]; 23CPPA 20 micromolar, 9 minutes): 12 % of starting absorbance | Decay (% of starting absorbance) ([2]; 23CPPA 20 micromolar, 10 minutes): 11 % of starting absorbance | Decay (% of starting absorbance) ([2]; 23CPPA 20 micromolar, 11 minutes): 10 % of starting absorbance | Decay (% of starting absorbance) ([2]; 23CPPA 20 micromolar, 12 minutes): 10 % of starting absorbance | Decay (% of starting absorbance) ([2]; 23CPPA 20 micromolar, 13 minutes): 9 % of starting absorbance | Decay (% of starting absorbance) ([2]; 23CPPA 20 micromolar, 14 minutes): 9 % of starting absorbance | Decay (% of starting absorbance) ([2]; 23CPPA 20 micromolar, 15 minutes): 9 % of starting absorbance | Decay (% of starting absorbance) ([2]; 23CPPA 40 micromolar, 1 minute): 20 % of starting absorbance | Decay (% of starting absorbance) ([2]; 23CPPA 40 micromolar, 2 minutes): 20 % of starting absorbance | Decay (% of starting absorbance) ([2]; 23CPPA 40 micromolar, 3 minutes): 3 % of starting absorbance | Decay (% of starting absorbance) ([2]; 23CPPA 40 micromolar, 4 minutes): 1 % of starting absorbance | Decay (% of starting absorbance) ([2]; 23CPPA 40 micromolar, 5 minutes): 0 % of starting absorbance | Decay (% of starting absorbance) ([2]; 23CPPA 40 micromolar, 6 minutes): 0 % of starting absorbance | Decay (% of starting absorbance) ([2]; 23CPPA 40 micromolar, 7 minutes): 0 % of starting absorbance | Decay (% of starting absorbance) ([2]; 23CPPA 40 micromolar, 8 minutes): 0 % of starting absorbance | Decay (% of starting absorbance) ([2]; 23CPPA 40 micromolar, 9 minutes): 0 % of starting absorbance | Decay (% of starting absorbance) ([2]; 23CPPA 40 micromolar, 10 minutes): 0 % of starting absorbance | Decay (% of starting absorbance) ([2]; 23CPPA 40 micromolar, 11 minutes): 0 % of starting absorbance | Decay (% of starting absorbance) ([2]; 23CPPA 40 micromolar, 12 minutes): 0 % of starting absorbance | Decay (% of starting absorbance) ([2]; 23CPPA 40 micromolar, 13 minutes): 0 % of starting absorbance | Decay (% of starting absorbance) ([2]; 23CPPA 40 micromolar, 14 minutes): 0 % of starting absorbance | Decay (% of starting absorbance) ([2]; 23CPPA 40 micromolar, 15 minutes): 0 % of starting absorbance | Ultraviolet (UV) absorption peaks [3]: 211 nm and 283 nm | Absorbance ([3]; wavelength 190 nm): 0.5 | Absorbance ([3]; wavelength 195 nm): 0.75 | Absorbance ([3]; wavelength 197 nm): 1.0 | Absorbance ([3]; wavelength 198 nm): 1.25 | Absorbance ([3]; wavelength 199 nm): 1.5 | Absorbance ([3]; wavelength 205 nm): 2.0 | Absorbance ([3]; wavelength 208 nm): 2.1 | Absorbance ([3]; wavelength 211 nm): 2.2 | Absorbance ([3]; wavelength 212 nm): 2.0 | Absorbance ([3]; wavelength 220 nm): 1.25 | Absorbance ([3]; wavelength 222 nm): 1.0 | Absorbance ([3]; wavelength 232 nm): 0.5 | Absorbance ([3]; wavelength 235 nm): 0.45 | Absorbance ([3]; wavelength 239 nm): 0.43 | Absorbance ([3]; wavelength 243 nm): 0.43 | Absorbance ([3]; wavelength 249 nm): 0.43 | Absorbance ([3]; wavelength 252 nm): 0.43 | Absorbance ([3]; wavelength 256 nm): 0.43 | Absorbance ([3]; wavelength 260 nm): 0.5 | Absorbance ([3]; wavelength 272 nm): 0.75 | Absorbance ([3]; wavelength 283 nm): 0.93 | Absorbance ([3]; wavelength 291 nm): 0.75 | Absorbance ([3]; wavelength 300 nm): 0.5 | Absorbance ([3]; wavelength 308 nm): 0.25 | Absorbance ([3]; wavelength 325 nm): 0
